Assay results: ChEMBL document CHEMBL1649287, “Postantibiotic effect of ceftaroline against gram-positive organisms” (2009)
In brackets after ≈: the same amount, converted by molar mass.

Columns and labels:
Assay type in all cases: functional
[1] = tested on: Staphylococcus aureus; experiment: Antimicrobial activity against methicillin-resistant, vancomycin-hetroresistant Staphylococcus aureus 618 assessed as post antibiotic effect at 10 times MIC after 1 hr by plate counting method; settings: Staphylococcus aureus, 618, 1 h
[2] = tested on: Streptococcus pneumoniae; experiment: Antimicrobial activity against Penicillin-intermediate Streptococcus pneumoniae s1234 assessed as time required to induce post antibiotic sub-MIC effect at 0.4 times MIC after 1 hr by plate counting method; settings: s1234, 1 h
[3] = tested on: Staphylococcus aureus; experiment: Antimicrobial activity against methicillin-susceptible, vancomycin-susceptible Staphylococcus aureus sox1 assessed as time required to induce sub-MIC effect at 0.3 times MIC after 1 hr by plate counting method; settings: sox1, 1 h
[4] = tested on: Enterococcus faecalis; experiment: Antimicrobial activity against vancomycin-sensitive Enterococcus faecalis 10 assessed as time required to induce sub-MIC effect at 0.2 times MIC after 1 hr by plate counting method; settings: Enterococcus faecalis, 10, 1 h
[5] = tested on: Streptococcus pneumoniae; experiment: Antimicrobial activity against Penicillin-susceptible Streptococcus pneumoniae s502 assessed as time required to induce sub-MIC effect at 0.4 times MIC after 1 hr by plate counting method; settings: s502, 1 h
[6] = tested on: Enterococcus faecalis; experiment: Antimicrobial activity against vancomycin-resistant Enterococcus faecalis 609 assessed as time required to induce sub-MIC effect at 0.4 times MIC after 1 hr by plate counting method; settings: Enterococcus faecalis, 609, 1 h
[7] = tested on: Staphylococcus aureus; experiment: Antimicrobial activity against methicillin-susceptible, vancomycin-susceptible Staphylococcus aureus ATCC 29213 assessed as time required to induce post antibiotic sub-MIC effect at 0.2 times MIC after 1 hr by plate counting method; settings: ATCC 29213, 1 h
[8] = tested on: Enterococcus faecalis; experiment: Antimicrobial activity against vancomycin-resistant Enterococcus faecalis 609 assessed as time required to induce post antibiotic sub-MIC effect at 0.3 times MIC after 1 hr by plate counting method; settings: Enterococcus faecalis, 609, 1 h
[9] = tested on: Streptococcus pneumoniae; experiment: Antimicrobial activity against Penicillin-intermediate Streptococcus pneumoniae s1234 assessed as time required to induce sub-MIC effect at 0.4 times MIC after 1 hr by plate counting method; settings: s1234, 1 h
[10] = tested on: Staphylococcus aureus; experiment: Antimicrobial activity against methicillin-susceptible, vancomycin-susceptible Staphylococcus aureus sox1 assessed as time required to induce sub-MIC effect at 0.4 times MIC after 1 hr by plate counting method; settings: sox1, 1 h
[11] = tested on: Streptococcus pneumoniae; experiment: Antimicrobial activity against Penicillin-susceptible Streptococcus pneumoniae s502 by microdilution method
[12] = tested on: Enterococcus faecalis; experiment: Antimicrobial activity against vancomycin-resistant Enterococcus faecalis 266 assessed as time required to induce post antibiotic sub-MIC effect at 0.3 times MIC after 1 hr by plate counting method; settings: Enterococcus faecalis, 266, 1 h
[13] = tested on: Streptococcus pneumoniae; experiment: Antimicrobial activity against Streptococcus pneumoniae ATCC 10813 infected in neutropenic ICR mouse assessed as post antibiotic effect at 1.56 to 100 mg/kg, sc administered 14 hrs post infection; settings: dose mg/kg 1.56-100; route subcutaneous
[14] = tested on: Staphylococcus aureus; experiment: Antimicrobial activity against methicillin-susceptible, vancomycin-susceptible Staphylococcus aureus ATCC 29213 assessed as time required to induce sub-MIC effect at 0.3 times MIC after 1 hr by plate counting method; settings: ATCC 29213, 1 h
[15] = tested on: Staphylococcus aureus; experiment: Antimicrobial activity against methicillin-susceptible, vancomycin-susceptible Staphylococcus aureus sox1 assessed as time required to induce post antibiotic sub-MIC effect at 0.4 times MIC after 1 hr by plate counting method; settings: sox1, 1 h
[16] = tested on: Enterococcus faecalis; experiment: Antimicrobial activity against vancomycin-sensitive Enterococcus faecalis ATCC 29212 assessed as time required to induce sub-MIC effect at 0.2 times MIC after 1 hr by plate counting method; settings: ATCC 29212, 1 h
[17] = tested on: Staphylococcus aureus; experiment: Antimicrobial activity against methicillin-resistant, vancomycin-susceptible Staphylococcus aureus vs1 by microdilution method
[18] = tested on: Staphylococcus aureus; experiment: Antimicrobial activity against methicillin-resistant, vancomycin-intermediate Staphylococcus aureus 510 assessed as time required to induce post antibiotic sub-MIC effect at 0.4 times MIC after 1 hr by plate counting method; settings: Staphylococcus aureus, 510, 1 h
[19] = tested on: Enterococcus faecalis; experiment: Antimicrobial activity against vancomycin-sensitive Enterococcus faecalis ATCC 29212 assessed as time required to induce sub-MIC effect at 0.3 times MIC after 1 hr by plate counting method; settings: ATCC 29212, 1 h
[20] = tested on: Staphylococcus aureus; experiment: Antimicrobial activity against methicillin-resistant, vancomycin-resistant Staphylococcus aureus 770 assessed as time required to induce post antibiotic sub-MIC effect at 0.2 times MIC after 1 hr by plate counting method; settings: Staphylococcus aureus, 770, 1 h
[21] = tested on: Staphylococcus aureus; experiment: Antimicrobial activity against methicillin-susceptible, vancomycin-susceptible Staphylococcus aureus ATCC 29213 assessed as post antibiotic effect at 10 times MIC after 1 hr by plate counting method; settings: ATCC 29213, 1 h
[22] = tested on: Staphylococcus aureus; experiment: Antimicrobial activity against methicillin-susceptible, vancomycin-susceptible Staphylococcus aureus ATCC 29213 assessed as time required to induce post antibiotic sub-MIC effect at 0.4 times MIC after 1 hr by plate counting method; settings: ATCC 29213, 1 h
[23] = tested on: Staphylococcus aureus; experiment: Antimicrobial activity against methicillin-resistant, vancomycin-susceptible Staphylococcus aureus vs1 assessed as time required to induce post antibiotic sub-MIC effect at 0.2 times MIC after 1 hr by plate counting method; settings: vs1, 1 h
[24] = tested on: Enterococcus faecalis; experiment: Antimicrobial activity against vancomycin-sensitive Enterococcus faecalis 10 by microdilution method
[25] = tested on: Streptococcus pneumoniae; experiment: Antimicrobial activity against Penicillin-, erythromycin-resistant Streptococcus pneumoniae 37 assessed as time required to induce sub-MIC effect at 0.4 times MIC after 1 hr by plate counting method; settings: Streptococcus pneumoniae, 37, 1 h
[26] = tested on: Streptococcus pneumoniae; experiment: Antimicrobial activity against Penicillin-susceptible Streptococcus pneumoniae s502 assessed as post antibiotic effect at 10 times MIC after 1 hr by plate counting method; settings: s502, 1 h
[27] = tested on: Enterococcus faecalis; experiment: Antimicrobial activity against vancomycin-sensitive Enterococcus faecalis ATCC 29212 assessed as time required to induce post antibiotic sub-MIC effect at 0.2 times MIC after 1 hr by plate counting method; settings: ATCC 29212, 1 h
[28] = tested on: Staphylococcus aureus; experiment: Antimicrobial activity against methicillin-resistant, vancomycin-susceptible Staphylococcus aureus vs1 assessed as time required to induce post antibiotic sub-MIC effect at 0.4 times MIC after 1 hr by plate counting method; settings: vs1, 1 h
[29] = tested on: Streptococcus pneumoniae; experiment: Antimicrobial activity against Penicillin-susceptible Streptococcus pneumoniae ATCC 49617 assessed as time required to induce sub-MIC effect at 0.2 times MIC after 1 hr by plate counting method; settings: ATCC 49617, 1 h
[30] = tested on: Staphylococcus aureus; experiment: Antimicrobial activity against methicillin-resistant, vancomycin-intermediate Staphylococcus aureus 510 by microdilution method
[31] = tested on: Staphylococcus aureus; experiment: Antimicrobial activity against methicillin-resistant, vancomycin-susceptible Staphylococcus aureus vs1 assessed as post antibiotic effect at 10 times MIC after 1 hr by plate counting method; settings: vs1, 1 h
[32] = tested on: Enterococcus faecalis; experiment: Antimicrobial activity against vancomycin-sensitive Enterococcus faecalis 10 assessed as time required to induce post antibiotic sub-MIC effect at 0.2 times MIC after 1 hr by plate counting method; settings: Enterococcus faecalis, 10, 1 h
[33] = tested on: Staphylococcus aureus; experiment: Antimicrobial activity against methicillin-resistant, vancomycin-resistant Staphylococcus aureus 770 assessed as post antibiotic effect at 10 times MIC after 1 hr by plate counting method; settings: Staphylococcus aureus, 770, 1 h
[34] = tested on: Streptococcus pneumoniae; experiment: Antimicrobial activity against Penicillin-susceptible Streptococcus pneumoniae s502 assessed as time required to induce post antibiotic sub-MIC effect at 0.2 times MIC after 1 hr by plate counting method; settings: s502, 1 h

SMILES: CCO/N=C(\C(=O)N[C@@H]1C(=O)N2C(C(=O)[O-])=C(Sc3nc(-c4cc[n+](C)cc4)cs3)CS[C@H]12)c1nsc(NP(=O)(O)O)n1 [CEFTAROLINE FOSAMIL]
- PAE [1]: 0.7 h
- PAE [2]: 2.5 h
- PAE [3]: 0.9 h
- PAE [4]: 0.8 h
- PAE [5]: 2.5 h
- time [6]: 2.2 h
- PAE [7]: 2.5 h
- time [8]: 3.3 h
- PAE [9]: 0.6 h
- PAE [10]: 1.6 h
- MIC [11]: 0.008 mg/L (≈ 0.0117 µM)
- time [12]: > 10.3 h
- PAE [13]: 1.5 h
- PAE [14]: 0.8 h
- PAE [15]: 6.2 h
- PAE [16]: 3.1 h
- MIC [17]: 0.5 mg/L (≈ 0.73 µM)
- time [18]: > 10 h
- PAE [19]: 3.6 h
- time [20]: 1.5 h
- PAE [21]: 1 h
- PAE [22]: > 10.5 h
- time [23]: 2.7 h
- MIC [24]: 0.5 mg/L (≈ 0.73 µM)
- time [25]: 0.5 h
- PAE [26]: 1.8 h
- PAE [27]: 7.6 h
- time [28]: 6.7 h
- PAE [29]: 0.2 h
- MIC [30]: 0.5 mg/L (≈ 0.73 µM)
- PAE [31]: 1.2 h
- PAE [32]: 3.2 h
- PAE [33]: 1.3 h
- PAE [34]: 2.7 h
